Numbered stars: 1 amine (or outer) side, 2 acyl side, 3 side chain; on linkers, the order of the positions; unused ones are H or OH. Square brackets hold non-standard residues; d marks the D form. Peptide text beside a SMILES is read from it. * marks the point of attachment. X1 = O=C(O)[C@H]1O[C@@H](Oc2ccc(COC(=O)[*:2])cc2N[*:1])[C@H](O)[C@@H](O)[C@@H]1O; CH3O(CH2CH2O)11CH2CH2CO = COCCOCCOCCOCCOCCOCCOCCOCCOCCOCCOCCOCCC(=O)*; Dolaproine = CO[C@@H]([C@@H]1CCCN1)[C@@H](C)C(=O)O; Hexanoyl(6-maleimido) = O=C1C=CC(=O)N1CCCCCC(=O)*; Propanoyl(3-maleimido) = O=C1C=CC(=O)N1CCC(=O)*; Dil = CC[C@H](C)[C@H](NC)[C@@H](CC(=O)O)OC; PABC = O=C(OCc1ccc(N[*:1])cc1)[*:2]; X2 = C[C@@H](N*)[C@@H](O)c1ccccc1; Cit = NC(=O)NCCC[C@H](N)C(=O)O; NMeV = CN[C@H](C(=O)O)C(C)C; βAla = NCCC(=O)O
Assays:
Type in all cases: biochemical
[1] = target: T1, Human neutrophil elastase (Homo sapiens, UniProt P08246); assay: Linker-Payload enzymatic cleavage with human neutrophil elastase; settings: 0.67 μM enzyme, 67 μM Linker-Payload, pH 7.4, 37° C., 24 hours
T1 sequence (P08246 30-267): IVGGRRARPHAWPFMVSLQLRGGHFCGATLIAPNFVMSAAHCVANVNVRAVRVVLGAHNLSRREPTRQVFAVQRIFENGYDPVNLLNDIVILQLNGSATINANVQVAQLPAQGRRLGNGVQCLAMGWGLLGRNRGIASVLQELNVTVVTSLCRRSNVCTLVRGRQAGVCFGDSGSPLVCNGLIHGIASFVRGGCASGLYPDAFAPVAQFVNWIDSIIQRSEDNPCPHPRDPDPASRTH
Experimental: (§1) 0.67 μM Human neutrophil elastase was added to 67 μM Linker-Payload (1:100) in Tris Buffered Saline, pH 7.4. The mixture was incubated at 37° C. for a duration of 24 hours with intermediate timepoints collected and diluted 1:1 with buffer containing acetonitrile, water and formic acid. The sample was measured by reverse-phase HPLC with data quantified against a standard curve.

β-glucuronidase = target: T2, β-glucuronidase (Homo sapiens, UniProt P08236); assay: Linker-Payload enzymatic cleavage with β-glucuronidase; settings: 4 nM enzyme, 40 μM Linker-Payload, pH 5.0, 37° C., 24 hours; for cleavage in the presence of β-glucuronidase: FIG. 1A
T2 sequence (P08236 23-651): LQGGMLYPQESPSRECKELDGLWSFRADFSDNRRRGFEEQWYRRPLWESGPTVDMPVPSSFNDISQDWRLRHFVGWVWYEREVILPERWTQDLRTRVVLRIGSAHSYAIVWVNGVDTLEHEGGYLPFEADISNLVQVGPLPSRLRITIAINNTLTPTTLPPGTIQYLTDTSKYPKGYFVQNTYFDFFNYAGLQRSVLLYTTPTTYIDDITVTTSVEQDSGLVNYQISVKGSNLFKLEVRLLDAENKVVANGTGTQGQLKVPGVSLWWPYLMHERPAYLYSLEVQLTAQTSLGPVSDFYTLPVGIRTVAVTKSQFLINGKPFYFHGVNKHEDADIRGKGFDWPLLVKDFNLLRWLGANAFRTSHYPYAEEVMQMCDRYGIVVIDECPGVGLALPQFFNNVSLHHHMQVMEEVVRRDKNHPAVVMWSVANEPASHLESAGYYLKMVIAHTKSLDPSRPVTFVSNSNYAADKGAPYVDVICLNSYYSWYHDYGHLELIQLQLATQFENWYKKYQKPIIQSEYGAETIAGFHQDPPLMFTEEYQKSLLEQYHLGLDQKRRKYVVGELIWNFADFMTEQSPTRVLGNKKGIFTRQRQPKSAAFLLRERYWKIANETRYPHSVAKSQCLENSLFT
Experimental: as §1, with “4 nM β-glucuronidase” for “0.67 μM Human neutrophil elastase”, “40” for “67”, “(1:10,000)” for “(1:100)”, “50 mM sodium acetate,” for “Tris Buffered Saline,”, “5.0.” for “7.4.”

Cathepsin B = Cathepsin B (Homo sapiens, UniProt P07858); assay: Linker-Payload enzymatic cleavage with cathepsin B; settings: FIG. 1B; 0.14 μM enzyme, 70 μM Linker-Payload, pH 5.0, 37° C., 24 hours
Experimental: as §1, with “0.14” for “0.67”, “Cathepsin B” for “Human neutrophil elastase”, “70” for “67”, “(1:500)” for “(1:100)”, “50 mM sodium acetate, 1 mM DTT,” for “Tris Buffered Saline,”, “5.0.” for “7.4.”

SMILES | cleavage in the presence of human neutrophil elastase ([1]; FIG. 1C) | cleavage in the presence of β-glucuronidase (β-glucuronidase) | cleavage in the presence of β-glucuronidase relative to references (β-glucuronidase; FIG. 1E) | cleavage in the presence of human neutrophil elastase ([1]; FIG. 1D) | cleavage in the presence of cathepsin B (Cathepsin B)
CC[C@H](C)[C@@H]([C@@H](CC(=O)N1CCC[C@H]1[C@H](OC)[C@@H](C)C(=O)N[C@H](C)[C@@H](O)c1ccccc1)OC)N(C)C(=O)[C@@H](NC(=O)[C@H](C(C)C)N(C)C(=O)OCc1ccc(NC(=O)[C@H](CCCNC(N)=O)NC(=O)[C@@H](NC(=O)CCCCCN2C(=O)C=CC2=O)C(C)C)cc1)C(C)C [LP1, maleimidocaproyl-valine-citrulline-p-aminobenzoyloxycarbonyl-MMAE, reference compound] ({Hexanoyl(6-maleimido)}-V[Cit][PABC][NMeV]V[Dil][Dolaproine]-X2) | underwent more rapid cleavage |  |  |  | 
CC[C@H](C)[C@@H]([C@@H](CC(=O)N1CCC[C@H]1[C@H](OC)[C@@H](C)C(=O)N[C@H](C)[C@@H](O)c1ccccc1)OC)N(C)C(=O)[C@@H](NC(=O)[C@H](C(C)C)N(C)C(=O)OCc1ccc(O[C@@H]2O[C@H](C(=O)O)[C@@H](O)[C@H](O)[C@H]2O)c(CNC(=O)CCNC(=O)COC2(CNC(=O)CCN3C(=O)C=CC3=O)CN(C(=O)CCOCCOCCOCCOCCOCCOCCOCCOCCOCCOCCOCCOC)C2)c1)C(C)C [LP2] | did not undergo rapid cleavage | underwent significant cleavage | underwent slower cleavage than both LP7 (Reference) and LP8 (Reference) | did not undergo rapid cleavage | neither LP2 nor LP3 underwent rapid cleavage
CC[C@H](C)[C@@H]([C@@H](CC(=O)N1CCC[C@H]1[C@H](OC)[C@@H](C)C(=O)N[C@H](C)[C@@H](O)c1ccccc1)OC)N(C)C(=O)[C@@H](NC(=O)[C@H](C(C)C)N(C)C(=O)OCc1ccc(O[C@@H]2O[C@H](C(=O)O)[C@@H](O)[C@H](O)[C@H]2O)c(CNC(=O)COC2(CNC(=O)CCN3C(=O)C=CC3=O)CN(C(=O)CCOCCOCCOCCOCCOCCOCCOCCOCCOCCOCCOCCOC)C2)c1)C(C)C [LP3] | did not undergo rapid cleavage | underwent significant cleavage |  |  | neither LP2 nor LP3 underwent rapid cleavage
CC[C@H](C)[C@@H]([C@@H](CC(=O)N1CCC[C@H]1[C@H](OC)[C@@H](C)C(=O)N[C@H](C)[C@@H](O)c1ccccc1)OC)N(C)C(=O)[C@@H](NC(=O)[C@H](C(C)C)N(C)C(=O)OCc1ccc(O[C@@H]2O[C@H](C(=O)O)[C@@H](O)[C@H](O)[C@H]2O)c(CNC(=O)CCNC(=O)[C@H](CCCCNC(=O)CCOCCOCCOCCOCCOCCOCCOCCOCCOCCOCCOCCOC)NC(=O)CCN2C(=O)C=CC2=O)c1)C(C)C [LP7, reference compound] |  |  |  | did not undergo rapid cleavage | 
CC[C@H](C)[C@@H]([C@@H](CC(=O)N1CCC[C@H]1[C@H](OC)[C@@H](C)C(=O)N[C@H](C)[C@@H](O)c1ccccc1)OC)N(C)C(=O)[C@@H](NC(=O)[C@H](C(C)C)N(C)C(=O)OCc1ccc(O[C@@H]2O[C@H](C(=O)O)[C@@H](O)[C@H](O)[C@H]2O)c(NC(=O)CCNC(=O)[C@H](CCCCNC(=O)CCOCCOCCOCCOCCOCCOCCOCCOCCOCCOCCOCCOC)NC(=O)CCN2C(=O)C=CC2=O)c1)C(C)C [LP8, reference compound] ({Propanoyl(3-maleimido)}-K(CH3O(CH2CH2O)11CH2CH2CO)[βAla][X1][NMeV]V[Dil][Dolaproine]-X2) |  |  |  | did not undergo rapid cleavage | 

From patent US20250073339A1, “CONJUGATES COMPRISING CLEAVABLE LINKERS” (priority 2023, published 2025)
